What was measured:
[1] = tested on: Clonic Seizures Caused by Pentylenetetrazole in Rats; assay: Protection against clonic seizures caused by pentylenetetrazole in rats; assay type: in vivo; settings: Rattus norvegicus, oral or i.p., read-out: % of Rats Protected; for responders at 25 mg/kg: pentylenetetrazole 23 mg/kg i.v. at 30 or 60 min
Description: The anti-anxiety and anticonvulsant properties of the novel compounds of the present invention have been established in a test which indicates anxiolytic and antiepileptic activity by the measure of protection from convulsions resulting from the administration of pentylenetetrazole. Single or graded dose levels of the test compounds were administered orally or intraperitoneally in a 2% starch vehicle, containing 0.5% v/v polyethylene glycol and one drop of Polysorbate 80 to groups of at least 4 rats. At 30 or 60 minutes, the rats were treated intravenously with pentylenetetrazole at a dose of 23 mg/kg of body weight. This dose is estimated to cause clonic seizures in 99% of unprotected rats. It has been reported [R. T. Hill and D. H. Tedeschi, "Animal Testing and Screening Procedures in Evaluating Psychotropic Drugs" in "An Introduction to Psychopharmacology", Eds. R. R. Rech and K. E. Moore, Raven Press, New York, pp 237-288 (1971)] that there is a high degree of correlation between antagonism of pentylenetetrazole seizures in rats and anti-anxietyor anticonvulsant effects in higher warm-blooded animals.

[2] = tested on: Nonconditioned Passive Avoidance in Rats; assay: Nonconditioned passive avoidance (conflict) test in rats; assay type: in vivo, rat (Wistar); parameters: key: Active: considered active if the number of shocks received by the test group is significantly higher than the control group by the Mann-Witney U test; settings: oral or i.p.
Description: Another test which has been used to assess anti-anxiety effects is a nonconditioned passive avoidance procedure described by [J. R. Vogel, B. Beer and D. E. Clody, "A Simple and Reliable Conflict Procedure for Testing Anti-Anxiety Agents", Psychopharmacologia, 21, 1-7 (1971)]. A conflict situation is induced in rats by a modification of this method.
Groups of 6 naive, Wistar strain rats, weighing 200-240 g each were deprived of water for 48 hours and food for 24 hours. The test compounds were administered in single or graded, oral or intraperitoneal doses, suspended in a 2% starch vehicle containing 0.5% v/v polyethylene glycol and one drop of polysorbate 80. Control animals received the vehicle alone. At 30 to 60 minutes each rat was placed in an individual plexiglass chamber. Water was available ad libitum from a tap located in the rear of the chamber. A 0.7 milliampere DC shocking current was established between the stainless steel grid floor and the tap. After 20 licks of non-shocked drinking, a shock was delivered for 2 seconds and then further shocks were delivered on a ratio of one shock for 2 seconds for every 20 licks. This was continued for a total of 3 minutes. The number of shocks taken by each rat during the 3 minute interval was recorded and compared to a control group. […]

[3] = tested on: Brain-Specific Receptors of Rats; assay: Inhibition of the binding of 3H-benzodiazepine to brain-specific receptors of rats; parameters: species or system rat (Wistar); settings: 3H-diazepam 1.5 nM or 3H-flunitrazepam 1.0 nM; rat cortex P2 fraction; test concentration not given
[4] = pentylenetetrazole 23 mg/kg i.v.

SMILES | Result (nonconditioned passive avoidance) ([2]; dose 25.0 mg/kg) | responders at 25 mg/kg [1] | other results
CCN(C(C)=O)c1cccc(-c2ccnc3c(C(=O)c4ccccc4)cnn23)c1 [N-[3-(3-Benzoylpyrazolo[1,5-a]pyrimidin-7-yl)phenyl]-N-ethylacetamide] | Active |  | responders at 6.2 mg/kg ([1]; dose 6.2 mg/kg, pentylenetetrazole 23 mg/kg i.v.): 100%
CC(=O)N(C)c1ccc(-c2ccnc3c(C(=O)c4ccccc4)cnn23)cc1 [N--[4-(3-benzoylpyrazolo[1,5-a]pyrimidin-7-yl)phenyl]-N--methylacetamide] | Active |  | 
COc1cccc(C(=O)c2cnn3c(-c4cccnc4)ccnc23)c1 [(3-methoxyphenyl)[7-(3-pyridinyl)pyrazolo[1,5-a]pyrimidin-3-yl]methanone] | Active | 75% | 
O=C(c1ccc(F)cc1)c1cnn2c(-c3cccnc3)ccnc12 [(4-fluorophenyl)[7-(3-pyridinyl)pyrazolo[1,5-a]pyrimidin-3-yl]methanone] | Active | 63% | 
CN(C)c1ccc(C(=O)c2cnn3c(-c4cccnc4)ccnc23)cc1 [[4-(dimethylamino)phenyl][7-(3-pyridinyl)pyrazolo[1,5-a]pyrimidin-3-yl]methanone] | Active | 100% | 
O=C(c1ccccc1F)c1cnn2c(-c3cccc(C(F)(F)F)c3)ccnc12 [(2-fluorophenyl)[7-[3-(trifluoromethyl)phenyl]pyrazolo[1,5-a]pyrimidin-3-yl]methanone] | Active | 50% | 
CCc1ccc(C(=O)c2cnn3c(-c4cccnc4)ccnc23)cc1 [(4-ethylphenyl)[7-(3-pyridinyl)pyrazolo[1,5-a]pyrimidin-3-yl]methanone] | Active | 100% | 
CCNc1cccc(-c2ccnc3c(C(=O)c4ccccc4)cnn23)c1 [[7-[3-(Ethylamino)phenyl]pyrazolo[1,5-a]pyrimidin-3-yl]phenylmethanone] | Active | 100% | 
O=C(c1ccc2c(c1)OCO2)c1cnn2c(-c3cccnc3)ccnc12 [1,3-benzodioxol-5-yl[7-(3-pyridinyl)pyrazolo[1,5-a]pyrimidin-3-yl]methanone] | Active | 50% | 
CCC(=O)N(C)c1cccc(-c2ccnc3c(C(=O)c4ccco4)cnn23)c1 [N-[3-[3-(2-Furanylcarbonyl)pyrazolo[1,5-a]pyrimidin-7-yl]phenyl]-N-methylpropanamide] | Active |  | responders at 6 mg/kg ([1]; dose 6.0 mg/kg, pentylenetetrazole 23 mg/kg i.v.): 100%
CC(=O)N(C)c1cccc(-c2ccnc3c(C(=O)c4ccco4)cnn23)c1 [N-[3-[3-(2-Furancarbonyl)pyrazolo[1,5-a]pyrimidin-7-yl]phenyl]-N-methylacetamide] | Active | 100% | 
CCN(C(C)=O)c1cccc(-c2ccnc3c(C(=O)c4ccco4)cnn23)c1 [N--ethyl-N--[3-[3-(2-furanylcarbonyl)pyrazolo[1,5-a]pyrimidin-7-yl]phenyl]acetamide] |  |  | responders at 12.5 mg/kg [1, 4]: 100%; Result (nonconditioned passive avoidance) ([2]; dose 12.5 mg/kg): Active
CN(C)c1ccc(C(=O)c2cnn3c(-c4cccc(C(F)(F)F)c4)ccnc23)cc1 [[4-(dimethylamino)phenyl][7-[3-(trifluoromethyl)phenyl]pyrazolo[1,5-a]pyrimidin-3-yl]methanone] | Active | 100% | 
O=C(c1ccccc1F)c1cnn2c(-c3ccncc3)ccnc12 [(2-fluorophenyl)[7-(4-pyridinyl)pyrazolo[1,5-a]pyrimidin-3-yl]methanone] | Active | 50% | 
CCC(=O)N(C)c1cccc(-c2ccnc3c(C(=O)c4ccccc4)cnn23)c1 [N-[3-(3-Benzoylpyrazolo[1,5-a]pyrimidin-7-yl)phenyl]-N-methylpropanamide] |  |  | responders at 0.8 mg/kg [1, 4]: 100%; Result (nonconditioned passive avoidance) ([2]; dose 1.5 mg/kg): Active
CCNc1cccc(-c2ccnc3c(C(=O)c4ccco4)cnn23)c1 [[7-[3-(Ethylamino)phenyl]pyrazolo[1,5-a]pyrimidin-3-yl]-2-furanylmethanone] | Active | 100% | 
CCC(=O)N(CC)c1cccc(-c2ccnc3c(C(=O)c4ccccc4)cnn23)c1 [N-[3-(3-Benzoylpyrazolo[1,5-a]pyrimidin-7-yl)phenyl]N-ethylpropanamide] |  |  | responders at 12.5 mg/kg [1, 4]: 100%; Result (nonconditioned passive avoidance) ([2]; dose 12.5 mg/kg): Active
O=C(c1cccc(F)c1)c1cnn2c(-c3ccncc3)ccnc12 [(3-fluorophenyl)[7-(4-pyridinyl)pyrazolo[1,5-a]pyrimidin-3-yl]methanone] | Active | 100% | 
O=C(c1ccccc1F)c1cnn2c(-c3cccnc3)ccnc12 [(2-fluorophenyl)[7-(3-pyridinyl)pyrazolo[1,5-a]pyrimidin-3-yl]methanone] | Active | 100% | 
CCC(=O)N(CC)c1cccc(-c2ccnc3c(C(=O)c4ccco4)cnn23)c1 [N-Ethyl-N-[3-[3-(2-furanylcarbonyl)pyrazolo[1,5-a]pyrimidin-7-yl]phenyl]propanamide] |  |  | Result (nonconditioned passive avoidance) ([2]; dose 12.5 mg/kg): Active
Cc1ccc(C(=O)c2cnn3c(-c4ccncc4)ccnc23)cc1 [(4-methylphenyl)[7-(4-pyridinyl)pyrazolo[1,5-a]pyrimidin-3-yl]methanone] |  | 50% | % Inhibition [3]: 19%
Cc1ccc(C(=O)c2cnn3c(-c4cccc(C(F)(F)F)c4)ccnc23)cc1 [(4-methylphenyl)[7-[3-(trifluoromethyl)phenyl]pyrazolo[1,5-a]pyrimidin-3-yl]methanone] |  | 50% | Result (nonconditioned passive avoidance) ([2]; dose 12.5 mg/kg): Active
O=C(c1ccccc1)c1cnn2c(-c3cc(Cl)cc(Cl)c3)ccnc12 [[7-(3,5-dichlorophenyl)pyrazolo[1,5-a]pyrimidin-3-yl]phenyl-methanone] |  | 25% | % Inhibition [3]: 20%
O=C(c1ccc(F)cc1)c1cnn2c(-c3ccccn3)ccnc12 [(4-fluorophenyl)[7-(2-pyridinyl)pyrazolo[1,5-a]pyrimidin-3-yl]methanone] |  | 50% | % Inhibition [3]: 17%
O=C(c1ccsc1)c1cnn2c(-c3cccnc3)ccnc12 [[7-(3-pyridinyl)pyrazolo[1,5-a]pyrimidin-3-yl]-3-thienylmethanone] | Active | 50% | 
O=C(c1ccncc1)c1cnn2c(-c3cccnc3)ccnc12 [4-pyridinyl[7-(3-pyridinyl)pyrazolo[1,5-a]pyrimidin-3-yl]methanone] | Active | 100% | 
CC(=O)N(C)c1cccc(-c2ccnc3c(C(=O)c4ccccc4)cnn23)c1 [N-[3-(3-Benzoylpyrazolo[1,5-a]pyrimidin-7-yl)phenyl]-N-methylacetamide] |  |  | responders at 0.8 mg/kg [1, 4]: 75%; Result (nonconditioned passive avoidance) ([2]; dose 3.1 mg/kg): Active
Cc1cc(-c2cc[n+]([O-])cc2)n2ncc(C(=O)c3ccccc3)c2n1 [[5-Methyl-7-(4-pyridinyl)pyrazolo[1,5-a]pyrimidin-3-yl]phenyl-methanone, pyridine-1-oxide] |  | 25% | % Inhibition [3]: 52%
O=C(c1ccncc1)c1cnn2c(-c3cccc(C(F)(F)F)c3)ccnc12 [4-pyridinyl[7-[3-(trifluoromethyl)phenyl]pyrazolo[1,5-a]pyrimidin-3-yl]methanone] | Active | 100% | 
COc1ccc(C(=O)c2cnn3c(-c4cccc(C(F)(F)F)c4)ccnc23)cc1OC [(3,4-dimethoxyphenyl)[7-[3-(trifluoromethyl)phenyl]pyrazolo[1,5-a]pyrimidin-3-yl]methanone] |  | 50% | % Inhibition [3]: 94%
